According to ChEMBL document CHEMBL1201862, “PubChem BioAssay data set” (2004):
The source made the active and inactive calls.

Assays:
[1] = target: T1, Endoribonuclease toxin MazF (Escherichia coli K-12, UniProt P0AE70); experiment: activation of MazEF endoribonuclease cleavage – biochemical, fluorescence, single-stranded RNA substrate, uHTS hits, dose response (AID 588481); format: functional
T1 sequence (P0AE70 whole entry): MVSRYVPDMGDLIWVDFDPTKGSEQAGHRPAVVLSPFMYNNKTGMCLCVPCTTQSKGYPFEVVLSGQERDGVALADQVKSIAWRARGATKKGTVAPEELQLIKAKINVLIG

Protein Tat = Protein Tat (Human immunodeficiency virus type 1 group M subtype B (isolate HXB2)(HIV-1), UniProt P04608); format: functional;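 note: tat binding to TAR RNA read out by fluorescence polarization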
Chain of Protein Tat (P04608 whole entry): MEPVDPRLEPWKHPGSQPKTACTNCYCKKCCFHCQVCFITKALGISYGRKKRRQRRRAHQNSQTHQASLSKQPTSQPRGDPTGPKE

[2] = target: T1, Endoribonuclease toxin MazF; experiment: substrate-only fluorescence increase artefacts – biochemical, single-stranded RNase substrate, counter-screen for MazEF activator project, dose response (AID 588502); format: functional
[3] = target: T2, Methionyl-tRNA synthetase, putative (Trypanosoma brucei brucei, UniProt Q38C91); format: functional, Trypanosoma brucei brucei strain 927/4 GUTat10.1
T2 sequence (Q38C91 whole entry): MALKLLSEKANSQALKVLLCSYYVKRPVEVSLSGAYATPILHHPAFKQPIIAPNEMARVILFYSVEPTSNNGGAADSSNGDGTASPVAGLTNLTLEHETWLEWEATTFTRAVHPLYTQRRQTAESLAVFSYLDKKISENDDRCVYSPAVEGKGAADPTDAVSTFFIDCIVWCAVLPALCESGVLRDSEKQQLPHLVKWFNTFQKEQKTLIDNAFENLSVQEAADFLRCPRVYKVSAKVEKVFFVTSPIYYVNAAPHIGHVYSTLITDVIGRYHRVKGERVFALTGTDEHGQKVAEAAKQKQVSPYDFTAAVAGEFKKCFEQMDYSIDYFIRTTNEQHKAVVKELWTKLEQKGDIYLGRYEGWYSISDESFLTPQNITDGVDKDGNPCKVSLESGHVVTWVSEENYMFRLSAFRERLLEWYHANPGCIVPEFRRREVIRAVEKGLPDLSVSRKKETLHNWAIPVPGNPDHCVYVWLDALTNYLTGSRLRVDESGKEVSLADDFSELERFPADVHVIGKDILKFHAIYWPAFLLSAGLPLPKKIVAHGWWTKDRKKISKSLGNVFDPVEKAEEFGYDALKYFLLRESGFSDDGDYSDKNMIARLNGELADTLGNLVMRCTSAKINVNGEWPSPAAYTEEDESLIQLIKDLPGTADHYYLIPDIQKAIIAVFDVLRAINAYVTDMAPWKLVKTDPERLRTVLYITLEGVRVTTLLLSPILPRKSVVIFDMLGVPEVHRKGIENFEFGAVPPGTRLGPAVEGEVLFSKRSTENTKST

[4] = Counterscreen for inhibitors of Trypanosoma brucei methionyl tRNA synthetase (MetRS): Luminescence-based cell-based high throughput dose response assay to identify compounds that are cytotoxic to Jurkat human T lymphocyte cells.; format: functional
[5] = Late stage counterscreen for inhibitors of Trypanosoma brucei methionyl tRNA synthetase (MetRS): Luminescence-based cell-based high throughput dose response assay to identify compounds that are cytotoxic to Jurkat human T lymphocyte cells.; format: functional
[6] = target: T2, Methionyl-tRNA synthetase, putative; format: functional, Trypanosoma brucei brucei strain 927/4 GUTat10.1; remark: listed apart in the source
[7] = Dd2 parasite growth inhibition in erythrocytes – SYBR Green, dry powder samples, set 9, dose response (AID 1159568); format: functional, cell-based
[8] = target: T3, Tyrosine-protein phosphatase non-receptor type 7 (Homo sapiens, UniProt P35236); experiment: HePTP tyrosine phosphatase activity blockers – biochemical, absorbance, leukemia target, primary screen (AID 521); format: functional
T3 sequence (P35236 whole entry): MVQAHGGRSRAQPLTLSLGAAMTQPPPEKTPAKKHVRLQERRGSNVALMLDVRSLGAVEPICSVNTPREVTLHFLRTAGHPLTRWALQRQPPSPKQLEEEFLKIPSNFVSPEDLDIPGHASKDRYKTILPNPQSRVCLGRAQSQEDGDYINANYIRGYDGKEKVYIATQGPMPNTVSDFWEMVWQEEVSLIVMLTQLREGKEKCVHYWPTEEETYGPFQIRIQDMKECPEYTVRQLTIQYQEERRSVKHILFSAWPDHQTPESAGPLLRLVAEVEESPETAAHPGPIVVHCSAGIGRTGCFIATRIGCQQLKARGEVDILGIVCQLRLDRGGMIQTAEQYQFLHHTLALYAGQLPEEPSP

[9] = target: RNA-editing ligase 1, mitochondrial (Trypanosoma brucei brucei, UniProt P86926); experiment: inhibition of trypanosome RNA editing ligase – biochemical, fluorescence, Trypanosoma brucei, dose response (AID 1117295); format: functional
Chain of RNA-editing ligase 1, mitochondrial (P86926 whole entry): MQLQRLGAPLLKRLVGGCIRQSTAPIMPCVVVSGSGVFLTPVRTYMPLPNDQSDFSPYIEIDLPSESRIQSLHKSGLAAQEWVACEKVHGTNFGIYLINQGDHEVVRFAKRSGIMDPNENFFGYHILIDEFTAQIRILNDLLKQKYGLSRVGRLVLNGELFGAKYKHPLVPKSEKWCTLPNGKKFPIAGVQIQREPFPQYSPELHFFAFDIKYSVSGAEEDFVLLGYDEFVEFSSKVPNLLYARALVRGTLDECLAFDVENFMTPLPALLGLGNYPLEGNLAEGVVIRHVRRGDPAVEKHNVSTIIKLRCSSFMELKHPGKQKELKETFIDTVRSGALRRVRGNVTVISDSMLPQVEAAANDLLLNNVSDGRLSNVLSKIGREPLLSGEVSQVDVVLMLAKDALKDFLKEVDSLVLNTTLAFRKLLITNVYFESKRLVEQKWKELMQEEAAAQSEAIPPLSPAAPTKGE

[10] = target: NAD-dependent protein deacylase sirtuin-5, mitochondrial (Homo sapiens, UniProt Q9NXA8); experiment: sirtuin-5 deacylation blockers, concentration series – biochemical, fluorescence imaging, cherry-pick, set 5, dose response (AID 720591);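 note: desuccinylation of succinyl peptide AMC substrate read as fluorescence after trypsin release; potency of inhibitors that lower fluorescence and may act on trypsin instead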
Chain of NAD-dependent protein deacylase sirtuin-5, mitochondrial (Q9NXA8 whole entry): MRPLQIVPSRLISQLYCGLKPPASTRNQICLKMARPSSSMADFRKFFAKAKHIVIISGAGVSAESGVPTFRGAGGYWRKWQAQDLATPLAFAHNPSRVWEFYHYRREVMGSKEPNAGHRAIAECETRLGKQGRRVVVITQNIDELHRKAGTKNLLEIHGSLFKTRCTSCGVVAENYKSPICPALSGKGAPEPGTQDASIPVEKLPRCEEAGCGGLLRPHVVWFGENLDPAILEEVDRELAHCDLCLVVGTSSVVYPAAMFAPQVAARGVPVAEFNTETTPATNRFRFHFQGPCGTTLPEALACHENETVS

[11] = Potency on glucagon-like peptide 1 release, dose-response in NCI-H716 cell line, half maximal inhibitory concentration (AID 1117344); format: functional, cell-based
[12] = glucagon-like peptide-1 release potency in STC-1, concentration-response, half-maximal inhibitory concentration in the STC-1 line (AID 1117345); format: functional, cell-based
[13] = Luminescence-based cell-based high throughput dose response assay to identify activators of the DAF-12 from the parasite S. stercoralis (ssDAF-12).; format: functional
[14] = target: T4, Oxysterols receptor LXR-beta (Homo sapiens, UniProt P55055); experiment: LXR agonists, Gal4 luciferase reporter, dose response, counter-screen for ssDAF-12 agonist project, cell-based, luminescence, HEK293, S. stercoralis campaign (AID 720737); format: functional; settings: read-out: IC50 (the source's name)
T4 sequence (P55055 whole entry): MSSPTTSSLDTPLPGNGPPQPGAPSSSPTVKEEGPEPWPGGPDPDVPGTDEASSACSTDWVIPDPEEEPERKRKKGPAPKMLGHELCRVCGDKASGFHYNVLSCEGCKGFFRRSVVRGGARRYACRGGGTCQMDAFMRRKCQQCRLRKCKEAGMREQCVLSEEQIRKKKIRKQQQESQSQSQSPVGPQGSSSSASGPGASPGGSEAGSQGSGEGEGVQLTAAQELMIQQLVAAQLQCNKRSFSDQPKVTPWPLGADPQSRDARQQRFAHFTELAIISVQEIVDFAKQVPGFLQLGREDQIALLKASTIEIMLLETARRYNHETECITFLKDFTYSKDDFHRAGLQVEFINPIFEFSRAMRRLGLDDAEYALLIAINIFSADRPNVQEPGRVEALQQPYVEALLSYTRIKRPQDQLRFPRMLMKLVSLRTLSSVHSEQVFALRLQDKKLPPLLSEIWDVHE

CCN(CC)c1ccc(/C=N/c2ccc(N(C)C)cc2)c(O)c1
EC50 [1]: > 99 µM (inactive)
IC50 (Protein Tat): > 100 µM (inconclusive)
EC50 [2]: > 99 µM (inactive)

Clc1ccc(OCCSCc2nc3ccccc3[nH]2)cc1
IC50 [3]: 5.85 µM (active)
IC50 [4]: 83.3 µM (inactive)
IC50 [5]: > 83.3 µM (inactive)
IC50 [6]: 8.17 µM (active)

O=C(Nc1ccccc1F)N1CCCCN2[C@H](CO)[C@@H](c3ccc(/C=C/c4ccccc4)cc3)[C@H]2C1
AC50 [7]: 1.72 µM (active)

CN(Cc1ccccc1)c1nc2c(c(=O)[nH]c(=O)n2C)n1Cc1ccccc1
IC50 [8]: > 100 µM (not active)

O=C(O)c1ccnc(C(=O)O)c1
IC50 [9]: > 96.6 µM (inactive)

O=C(O)CCNC(=O)c1ccc(NC(=O)C(c2ccccc2)c2ccccc2)cc1
AC50 [10]: 10.6 µM (active)

O=C(Nc1cccc2c(=O)cc(-c3nnn[nH]3)oc12)c1ccc(OCCCCc2ccccc2)cc1
IC50 [11]: > 40 µM (inactive)
IC50 [12]: > 40 µM (inactive)

Oc1[nH]ncc1/C=N/c1ccc(Oc2ccccc2)cc1
IC50 [13]: > 67.5 µM (inactive)
EC50 [14]: > 67.5 µM (inactive)
